According to patent publication US8173133B2, “Acyl pseudodipeptides which carry a functionalized auxiliary arm” (OM Pharma, priority 1999, dated 2012):

Key:
[1] = system: murine predendritic cells (CD-DM); experiment: maturation of murine predendritic cells into dendritic cells (flow cytometry of surface markers); assay type: cell-based, C57BI/6 mice; details: for CD40 MFI: 48 hour
Method: The marrow was aspirated from the femur and tibia bones of (C57BI/6, 6 to 8 week-old) mice. The marrow suspension was screened through a 70 μm cell sieve in order to obtain a single cell suspension. Marrow cells were resuspended into Isocove's modified Dulbecco medium (IMDM) supplemented with 10% of heat inactivated foetal calf serum (iFCS) and antibiotics. Cells were incubated overnight at 37° C., under CO2 and a moisture saturated atmosphere, inside 6-well microtiter plates. Next day (day 0), non adherent cells were collected and washed. Viable cells were counted by trypan blue dye exclusion test. Cell concentration was adjusted to 2×10^5 cells/ml in IMDM containing […] and 20 ng/ml of murine recombinant IL-4 (rmIL-4) and plates were further incubated. On the 3rd day, there were added freshly prepared mGM-CSF and rmIL-4 at a concentration of 10 ng/ml. On the 6th day, non adherent cells were collected, washed and counted by trypan blue dye exclusion. Cell concentration was adjusted to 2×10^5 cells/ml in IMDM containing 10 ng/ml of rmGM-CSF and rmIL-4, and plates were further incubated. On the 8th day, non adherent cells made up of both mature and immature dendritic cells (CD-DM) were collected and used in product co-incubation experiments.
After a 48 hour incubation period, cells were collected and stored for flow cytometry analysis Flow cytometry analysis CD-DM were washed with PBS containing 2% iFCS and 0.01% sodium azide (FACS buffer). Then, cells were incubated on ice for 30 minutes with optimal concentrations of anti-CD86 antibody; anti-CD40 antibody, FITC conjugated anti-MCHII antibody, and […]. Then, cells were washed 3 times. Labeling of anti-CD86 and anti-CD40 antibodies was performed by incubating cells on ice for 30 minutes with peroxidase-conjugated donkey anti-rat immunoglobulins. Following incubation, cells were washed and resuspended into FACS medium. Fluorescence was measured with the aid of FACScan® flow cytometry. 15000 pulse events were analyzed per sample. Cells which had been incubated with the conjugate alone were used as a negative control.

[2] = system: Leishmania LmCPb antigen; experiment: Leishmania LmCPb immunization: IL-4 and γ IFN in lymph node cell supernatant (ELISA); assay type: in vivo, CBA mice; details: lymph node cell cultures challenged with the parasite antigen
Method: CBA mice were administered through the tail a single subcutaneous injection (100 μl) of Leishmania parasite LmCPb antigen (3 μg per mouse)±adjuvant. […] Eleven days after injection, inguinal and periaortic lymph node cells (2 groups of 3 mice each) were cultured in triplicate in presence of purified LmCPb antigen or whole extract of the parasite (amastigote). At day 4, a supernatant sample is withdrawn and stored at −20° C. for IL-4 and γ IFN assay. Finally, tritiated thymidine (^3H-TdR) is added to the cultures to measure the proliferation reaction.
Cytokine assay is carried out by a sandwich ELISA assay (OptEIA®) kits for γ IFN and IL-4, BD, PharMingen, Basel, Switzerland) and the proliferation response is determined by measuring thymidine take-up (^3H-TdR). ^3H-TdR take-up given in cpm as the arithmetic mean value±standard deviation ([…] of 3 mice each) and IL-4 concentration given in pg/ml are individually reported for each pool of 3 mice as the arithmetic mean of two measurements (cytokine assay).
An LmCPb stock solution is prepared at a concentration of 150 μg/ml in PBS
Adjuvants: The stock solution of OM-294-MP-AC is prepared at a concentration of 0.9 mg/ml in water for injection, with addition of 0.1% triethanolamine.
Antigen-adjuvant mixture: Adjuvant preparation (4 volumes), which had been adjusted to an adequate final concentration in sterile PBS, is mixed just prior to injection with the antigen stock solution (1 volume).

[3] = system: MxA protein; experiment: MxA protein induction in dendritic cells (Western blot); assay type: cell-based, human; details: 1 μg/ml; after 24 hr and 48 hours; FIGS. 77, 78
Method: The ability of products of the invention to induce production of antiviral MxA protein by predendritic cells has been assessed. MxA production by cells was measured after an SDS-PAGE electrophoretic separation by a Western Blot assay
Extraction and analysis of protein was conducted as follows: cells were harvested, then washed 3 times with PBS (phosphate buffered saline) and lyzed with a 100 Mm Tris-HCl buffer, 150 mM NaCl, 5 mM EDTA, 1% Triton-100 containing 1 mM PMSF (phenylmethylsulphonyl fluoride) and 1 μ/ml of pepstatin as protease inhibitors. Lysis was carried out at a density of 10^6 cells for 100 μl of (5×) buffer containing 60 mM Tris-HCl (pH 6.8), 10% glycerol, 2% SDS, 14.4 mM 2-mercaptoethanol and 0.1% bromophenol). Samples were heated up to 95° C. for 5 min. in sealed Eppendorf tubes. Electrophoresis was performed on a 10 cm×10 cm 12% acrylamide minigel by running a sample having the same number of cells. Migration was effected with the following buffer: 25 mM Tris, 192 mM glycine, 0.1% SDS, pH 8.3. […]
Non specific bonding sites on the membrane were blocked with 5% skimmed milk in TBS (10 mM Tris-HCl, 150 Mm NaCl, pH 7.4) and allowing to stand for 1 hour at room temperature. […] In this system, HRP catalyzes a luminol-mediated chemiluminescent reaction which can be detected on a photographic film. […]

| Structure (SMILES) | C80 % cells ([1]; 0.1 μg/ml) [%] | C80 MFI ([1]; 0.1 μg/ml) | CD40 % cells ([1]; 0.1 μg/ml) [%] | CD86 % cells ([1]; 0.1 μg/ml) [%] | CD86 MFI ([1]; 0.1 μg/ml) | MHCII % cells ([1]; 0.1 μg/ml) [%] | MHCII MFI ([1]; 0.1 μg/ml) | CD40 MFI ([1]; 0.1 μg/ml) | C80 % cells ([1]; 1 μg/ml) [%] | C80 MFI ([1]; 1 μg/ml) | CD40 % cells ([1]; 1 μg/ml) [%] | CD86 % cells ([1]; 1 μg/ml) [%] | CD86 MFI ([1]; 1 μg/ml) | MHCII % cells ([1]; 1 μg/ml) [%] | MHCII MFI ([1]; 1 μg/ml) | CD40 MFI ([1]; 1 μg/ml) | C80 % cells ([1]; 10 μg/ml) [%] | C80 MFI ([1]; 10 μg/ml) | CD40 % cells ([1]; 10 μg/ml) [%] | CD86 % cells ([1]; 10 μg/ml) [%] | other results |
| --- | --- | --- | --- | --- | --- | --- | --- | --- | --- | --- | --- | --- | --- | --- | --- | --- | --- | --- | --- | --- | --- |
| CCCCCCCCCCCC(=O)O[C@H](CCCCCCCCCCC)CC(=O)N[C@H](CC(=O)O)C(=O)NCCC[C@H](COC(=O)CCCCCN)NC(=O)C[C@H](O)CCCCCCCCCCC [OM-197-MC-AC, N—[(R)-3-dodecanoyloxytetradecanoyl]-D-aspartic acid, α-N-{(4R)-5-(6-aminohexanoyloxy)-4-[(R)-3-hydroxytetradecanoylamino]pentyl}amide] | 41 | 66 | 34 | 37 | 3504 | 38 | 1597 | 446 | 47 | 73 | 48 | 45 | 3791 | 45 | 1607 | 493 | 53 | 97 | 55 | 52 | CD86 MFI ([1]; 10 μg/ml): 4162; MHCII % cells ([1]; 10 μg/ml): 49%; MHCII MFI ([1]; 10 μg/ml): 1622; CD40 MFI ([1]; 10 μg/ml): 605; γ IFN production [2]: < 100 pg/mL |
| CCCCCCCCCCCC(=O)O[C@H](CCCCCCCCCCC)CC(=O)N[C@H](CC(=O)O)C(=O)NCCC[C@H](COC(=O)CCCCC(O)CO)NC(=O)C[C@H](O)CCCCCCCCCCC (stereo partly drawn) [OM-197-MC-FV5, N—[(R)-3-dodecanoyloxytetradecanoylamino]-D-aspartic acid, α-N-{(4R)-5-hydroxy-4-[(R)-3-hydroxytetra-decanoylamino]-pentyl}amide 5-O-(6,7-dihydroxyheptanoate)] | 42 | 66 | 33 | 37 | 3437 | 40 | 1689 | 442 | 45 | 84 | 44 | 43 | 3888 | 43 | 1691 | 517 | 48 | 97 | 54 | 51 | CD86 MFI ([1]; 10 μg/ml): 4097; MHCII % cells ([1]; 10 μg/ml): 48%; MHCII MFI ([1]; 10 μg/ml): 1681; CD40 MFI ([1]; 10 μg/ml): 630 |
| CCCCCCCCCCCC(=O)O[C@H](CCCCCCCCCCC)CC(=O)NC(CCOP(=O)(O)O)C(=O)NCCCC(COC(=O)CCCCC(O)CO)NC(=O)C[C@H](O)CCCCCCCCCCC (stereo partly drawn) [OM-197-FV6, 3-[(R)-dodecanoyloxytetradecanoylamino]-4oxo-5-aza-9-[(R)-3-hydroxytetradecanoylamino]-decan-1,10-diol 1-dihydrogenphate 10-(6,7-dihydroxyheptanoate)] |  |  |  |  |  |  |  |  |  |  |  |  |  |  |  |  |  |  |  |  | production of MxA protein [3]: significant rise |
